Assay results taken from patent US12102432B2, “Uses of transdermal glomerular filtration rate measurement in continuous renal replacement therapy” (MediBeacon Inc., priority 2018, dated 2024).
Where “and” joins values, the source holds several entries; their conditions need not be identical. Identical values can stand only once.

Columns and labels:
[1] = In vitro continuous hemodialysis (CVVHD) model, saturation coefficient; format: in vitro ADME, bovine; details: for Saturation coefficient (mean ± SD): CVVHD, blood flow 200 mL/min
Description: For CVVHD experiments, the CLTM was assessed using a previously validated in vitro CVVHD model as illustrated in FIG. 6. Commonly used effluent flow rates of 16, 33, 50, and 100 mL/min, and a blood flow rate of 200 mL/min were used. Effluent was prepared according to directions from the manufacturer by mixing sodium bicarbonate powder (NATURALYTE® 4000, Fresenius Medical Care, Waltham, Mass., USA) with distilled water in a 45:1 ratio. After adding MB-102 and urea to the blood, it was recirculated through the circuit for 5 min for uniform coating of the extracorporeal circuit. A single-pass mode of the CVVHD procedure with four different flow rates was run in random order for each hemodiafilter. Blood samples were collected from the pre- and post-filter ports, and spent effluent samples were taken from the effluent port 5 min after initiation of the CVVHD experiments at all four effluent flow rates. These experiments were conducted on 6 new hemodiafilters and CRRT tubing sets. Saturation coefficient (SA) and CLTM were calculated as follows:
[formula] CLdiff=(SA×Qd) Equation (6)
where SA is the saturation coefficient; CUF is the concentration in the effluent; Ca is the concentration of the solute in the pre-filter; CV is the concentration of the solute in the post-filter; CLdiff is the diffusion clearance for post-filter replacement; Qd is the effluent flow rate.
(§1) All blood samples were collected and centrifuged at 3000 rpm for 10 minutes. The plasma and effluent samples were transferred to cryovials in duplicate and stored at −80° C. until analysis. BUN concentrations were analyzed with Advia 1800 (Siemens Healthcare Diagnostic Inc., Tarrytown, N.Y., USA) having a lower limit of quantification of 5 mg/dL.
(§2) Similarly, six CVVH and CVVHD experiments with each hemodiafilter were used to detect a 25% difference in MB-102 CLTM between hemodiafilters. Assumptions used in these calculations included: a power of 90% and a standard deviation of 10% with a significance level of p<0.05. A two-tailed, unpaired t-test was used to compare differences between the two hemodiafilters, and the analysis of variance was used to compare different QUF and Qd within each hemodiafilter type.

[2] = Adsorption of MB-102 to CRRT apparatus, in vitro CVVH model; format: in vitro ADME, bovine; details: for mean percent change at the end of experiment: average of 6 experiments, 60 min; for percent change at the end of each experiment: single experiments 1-6, initial to 60 min, blood flow 200 mL/min, Quf 33 mL/min
Description: As an initial step, it was determined if the compound MB-102 adsorbs onto the hemodiafilter, tubing or other parts of the CRRT instrument. This study used a continuous venovenous hemofiltration (CVVH) configuration to assess MB-102 adsorptive clearance with a previously validated in vitro CVVH model using 1 L of pH regulated, citrate-anti-coagulated bovine blood. Using a Braun DIAPACT™ CRRT system, two different hemodiafilters were tested: the HF1400 and the M150 hemodiafilters. New bovine blood, hemodiafilters, and CRRT tubing sets were used in each experiment. The blood was continuously stirred and maintained at 37° C. in a water bath during all experiments. Reconstituted MB-102 was added to the blood to achieve a final concentration of ˜6.2 mg/L. Urea was used as a control and added to the blood to produce a blood urea nitrogen (BUN) concentration of ˜75 mg/dL. Blood flow rates of 200 mL/min with an ultrafiltration rate (Quf) of 33 mL/min were tested. This maximized MB-102 contact with the membranes, both on the blood side and via convection through the hemodiafilter membrane. A closed system was developed to maintain a constant volume in the extracorporeal system. The effluent was used as the replacement fluid which was returned to the blood as a post-filter replacement fluid to maintain a constant blood volume. The CRRT instrument was primed with normal saline before operation, consequently the urea and MB-102 dilution caused by the residual priming solution was accounted for. Blood samples were collected from the pre-filter port at 0 (baseline), 5 (at which time mixing was complete), 10, 20, 30, and 60 minutes. Each experiment was repeated six times with new hemodiafilters and tubing sets.
Equations used to calculate the dilution factor and adsorption are as follows:
[formula] wherein C0 is the concentration of MB-102 in the pre-filter at time=0 minutes; and C60 is the concentration of MB-102 in the pre-filter at time=60 minutes.
[formula] where [Urea0] is the urea concentration in the pre-filter at time=0 minutes; and [Urea60] is the urea concentration in the pre-filter at time=60 minutes.
All blood samples were collected and centrifuged at 3000 rpm for 10 minutes. The plasma and effluent samples were transferred to cryovials in duplicate and stored at −80° C. until analysis. BUN concentrations were analyzed with Advia 1800 (Siemens Healthcare Diagnostic Inc., Tarrytown, N.Y., USA) having a lower limit of quantification of 5 mg/dL. […]

[3] = In vitro continuous hemofiltration (CVVH) model, sieving coefficient; format: in vitro ADME, bovine; details: CVVH
Description: The procedure for the CVVH study was conducted using the model CVVH system illustrated in FIG. 5. The CLTM of urea and MB-102 were evaluated with different blood flow rates, ultrafiltration rate (Quf) and hemodiafilters (Table 1). In a closed-loop system, the formed effluent was returned to the blood as a post-filter replacement fluid downstream from the post-hemodiafilter blood sampling port. Pre- and post-hemodiafilter blood samples, and effluent samples were collected concurrently. Six experiments were conducted for each hemodiafilter, and new hemodiafilters and CRRT apparatus were used for each experiment. Sieving coefficient (SC) and CLTM were calculated as follows:
[formula] where Sc is the sieving coefficient; Cuf is the concentration in the effluent; Ca is the concentration of the solute in the pre-filter; and Cv is the concentration of the solute in the post-filter. CLconv=SC×QUF Equation (4) wherein CLconv is the convective clearance for the post-filter replacement; QUF is the ultrafiltration rate.
as §1, §2

[4] = Meropenem infusion in porcine model before CRRT, blood concentration; format: in vivo, Swine; details: infused for 30 minutes
Description: Swine (3 male and 3 female, for both CVVH and CVVHD modalities) weighing 35-40 kg were used. In this model, a total functional nephrectomy was achieved by ligation of all renal arteries. Animals were inspected by professional veterinary staff within 48 hours of arrival. Any underlying infections or parasitism was treated based on veterinary recommendations. After taking a pre-MB-102 blood sample (baseline), a dose of 6 mg/kg of MB-102 was injected as a single bolus, followed by a 90 minute period of equilibration, to allow for MB-102 systemic redistribution (see FIGS. 7 and 13 for equilibration of fluorescent signal detected by the renal monitoring assembly). Thirty minutes after the MB-102 injection, Meropenum was infused for 30 minutes, which reached a peak concentration in blood ˜1 hr after the start of the infusion. […] Samples collected during these periods, along with the baseline (BSL) sample taken before the MB-102 dose, were assayed, and measured values were used in calculations to compare clearance rates with real-time MB-102 clearance measurements. […] A similar sample collection time-course was initiated at the high flow rate for both the low and high effluent flow rate data sets (seven sample time points at three circuit sites), allowing for similar comparisons of real-time and calculated clearance rates.

In the case of `NC(N)=O` [Urea, reference compound], the “Saturation coefficient (mean ± SD)” value ([1]; HF1400, Qd 16.7 mL/min) was 1.04 ± 0.07, the “Saturation coefficient (mean ± SD)” value ([1]; HF1400, Qd 33.3 mL/min) was 1.19 ± 0.09 and the “Saturation coefficient (mean ± SD)” value ([1]; HF1400, Qd 50 mL/min) was 1.17 ± 0.11. For the same molecule, the “Saturation coefficient (mean ± SD)” value ([1]; HF1400, Qd 100 mL/min) was 1.17 ± 0.19, the “Saturation coefficient (mean ± SD)” value ([1]; M150, Qd 16.7 mL/min) was 1.08 ± 0.08 and the “Saturation coefficient (mean ± SD)” value ([1]; M150, Qd 33.3 mL/min) was 1.16 ± 0.04. For the same molecule, the “Saturation coefficient (mean ± SD)” value ([1]; M150, Qd 50 mL/min) was 1.15 ± 0.15, the “Saturation coefficient (mean ± SD)” value ([1]; M150, Qd 100 mL/min) was 1.35 ± 0.20 and the “mean SA values” ([1]; low effluent flow rates (16-50 mL/min)) was “approximately unity”. For the same molecule, the “mean percent change at the end of experiment” value ([2]; HF1400 hemodiafilter) was 19.5%, the “percent change at the end of each experiment” value ([2]; HF1400 hemodiafilter) was 19.6% and 20.9% and 18.6% and 20.0% and 18.2% and the “mean percent change at the end of experiment” value ([2]; M150 hemodiafilter) was 19.3%. For the same molecule, the “percent change at the end of each experiment” value ([2]; M150 hemodiafilter) was 17.5% and 19.5% and 21.7% and 18.0% and 17.0% and 22.0%, the Mean sieving coefficient ([3]; HF1400, ultrafiltration rate 16.7 mL/min) was 1.08 ± 0.03 and the Mean sieving coefficient ([3]; HF1400, ultrafiltration rate 33.3 mL/min) was 1.09 ± 0.05. It also gave a Mean sieving coefficient ([3]; HF1400, ultrafiltration rate 50 mL/min) of 1.08 ± 0.07, a Mean sieving coefficient ([3]; M150, ultrafiltration rate 16.7 mL/min) of 1.00 ± 0.05 and a Mean sieving coefficient ([3]; M150, ultrafiltration rate 33.3 mL/min) of 1.04 ± 0.10. For the same molecule, the Mean sieving coefficient ([3]; M150, ultrafiltration rate 50 mL/min) was 1.05 ± 0.04.

For `C[C@@H](O)[C@H]1C(=O)N2C(C(=O)O)=C(S[C@@H]3CN[C@H](C(=O)N(C)C)C3)[C@H](C)[C@H]12` [Meropenem, meropenem], the “time to peak concentration in blood after the start of the infusion” value [4] was roughly 1 h.
